Assay results reported in US12049439B2 (OrsoBio, Inc., priority 2018, dated 2024).

Tested on: PC-3 cells
Experiment: PC-3 Oxygen Rate Consumption (OCR) Assay
Format: cell-based
Conditions: Homo sapiens, 0.05 h, medium with 2% FBS, OCR at 3-min post-injection normalized to % increase over DMSO-treated cells, concentration for half-maximal OCR increase, read-out: EC50-PC3-OCR-FBS-3min
Procedure: PC-3 Oxygen Rate Consumption (OCR) Assay Procedure:
One day before the assay, PC-3 cells were seeded at 2.5×10^4 cells/160 μL/well in a 96-well XFe96 cell plate, part of a FlexPak containing a cell plate and a cartridge (Agilent, Sunnyvale, CA). The cells were incubated overnight at 37° C. in a 5% CO2 and 90% humidity incubator with F12K culture medium (ThermoFisher Scientific/Invitrogen, Grand Island, NY) containing 10% FBS and 1% penicillin/streptomycin. On the day of the assay, the cells were washed twice with 300 µL/well Medium A [XF assay medium (Agilent) supplemented 10 mM glucose, 1 mM pyruvate, and 2% fetal bovine serum (FBS)], and incubated with 175 µL/well Media A for 1 hr in a 37° C., non-CO2 incubator prior to the measurement of cellular respiration. Compounds of interests were prepared in 1:2 serial dilutions with 100% DMSO and then further diluted into 8× working stock with Media A prior to being loaded to Injection Port A on a XFe96 Analyzer (Agilent). Six replicates were used for each treatment. The cartridge was calibrated in the XFe96 Analyzer 30 minute prior to the measurement of cellular respiration. Basal levels of OCR were measured three times, each using a “3-minute mixing/3-minute measurement” program. The compound effect was measured immediately after compound injection from Injection Port A, and OCR was monitored continuously 10 times, each time using a “1-minute mixing/2-minute measurement” program for a total of 30 minutes post compound injection. The level of OCR at 3-min post-injection was normalized to % increase over DMSO-treated cells. The concentration of compound required to reach the half-maximal OCR increase was defined as EC50 Table 2 contains PC3 OCR EC50 values for the compounds disclosed.

Compound | EC50 [µM]
O=C(NC12CC(C(F)(F)F)(C1)C2)c1ccc(C(F)(F)F)cc1NS(=O)(=O)c1ccc(N2CCCS2(=O)=O)cc1 [Example 29, 2-((4-(1,1-dioxidoisothiazolidin-2-yl)phenyl)sulfonamido)-4-(trifluoromethyl)-N-(3-(trifluoromethyl)bicyclo[1.1.1]pentan-1-yl)benzamide] | 8.8
CN(C)S(=O)(=O)c1ccc(S(=O)(=O)Nc2cc(C(F)(F)F)ccc2C(=O)NC23CC(c4ccccc4)(C2)C3)cc1 [Example 30, 2-((4-(N,N-dimethylsulfamoyl)phenyl)sulfonamido)-N-(3-phenylbicyclo[1.1.1]pentan-1-yl)-4-(trifluoromethyl)benzamide] | 1.11
O=C(NC12CC(c3ccccc3)(C1)C2)c1ccc(C(F)(F)F)cc1NS(=O)(=O)c1ccc(OC(F)(F)F)cc1 [Example 31, N-(3-phenylbicyclo[1.1.1]pentan-1-yl)-2-((4-(trifluoromethoxy)phenyl)sulfonamido)-4-(trifluoromethyl)benzamide] | 0.595
N#CC12CC(NC(=O)c3ccc(C(F)(F)F)cc3NS(=O)(=O)c3ccc(OC(F)(F)F)cc3)(C1)C2 [Example 32, N-(3-cyanobicyclo[1.1.1]pentan-1-yl)-2-((4-(trifluoromethoxy)phenyl)sulfonamido)-4-(trifluoromethyl)benzamide] | 1.52
O=C(NC12CC(C(F)(F)F)(C1)C2)c1ccc(C(F)(F)F)cc1NS(=O)(=O)c1ccc(S(=O)(=O)C(F)(F)F)cc1 [Example 33, 4-(trifluoromethyl)-N-(3-(trifluoromethyl)bicyclo[1.1.1]pentan-1-yl)-2-((4-((trifluoromethyl)sulfonyl)phenyl)sulfonamido)benzamide] | 1.93
O=C(NC12CC(C(F)(F)F)(C1)C2)c1ccc(C(F)(F)F)cc1NS(=O)(=O)c1ccc(S(=O)(=O)C(F)F)cc1 [Example 34, 2-((4-((difluoromethyl)sulfonyl)phenyl)sulfonamido)-4-(trifluoromethyl)-N-(3-(trifluoromethyl)bicyclo[1.1.1]pentan-1-yl)benzamide] | 2.71
N#CC12CC(NC(=O)c3ccc(C(F)(F)F)cc3NS(=O)(=O)c3ccc4ccccc4c3)(C1)C2 [Example 35, N-(3-cyanobicyclo[1.1.1]pentan-1-yl)-2-(naphthalene-2-sulfonamido)-4-(trifluoromethyl)benzamide] | 1.21
O=C(NC12CC(c3ccccc3)(C1)C2)c1ccccc1NS(=O)(=O)c1ccc(-n2ccnc2)cc1 [Example 36, 2-((4-(1H-imidazol-1-yl)phenyl)sulfonamido)-N-(3-phenylbicyclo[1.1.1]pentan-1-yl)benzamide] | ≥ 20
O=C(NC12CC(C1)C2)c1ccc(C(F)(F)F)cc1NS(=O)(=O)c1ccccc1 [Example 37, N-(bicyclo[1.1.1]pentan-1-yl)-2-(phenylsulfonamido)-4-(trifluoromethyl)benzamide] | 2.1
O=C(NC12CC(C(F)(F)F)(C1)C2)c1ccc(C(F)(F)F)cc1NS(=O)(=O)c1ccccc1 [Example 38, 2-(phenylsulfonamido)-4-(trifluoromethyl)-N-(3-(trifluoromethyl)bicyclo[1.1.1]pentan-1-yl)benzamide] | 0.478
Cn1cc(S(=O)(=O)Nc2cc(C(F)(F)F)ccc2C(=O)NC23CC(c4ccccc4)(C2)C3)cn1 [Example 39, 2-((1-methyl-1H-pyrazole)-4-sulfonamido)-N-(3-phenylbicyclo[1.1.1]pentan-1-yl)-4-(trifluoromethyl)benzamide] | 7.34
N#CC12CC(NC(=O)c3ccc(C(F)(F)F)cc3NS(=O)(=O)c3c(Cl)cc(Cl)cc3Cl)(C1)C2 [Example 40, N-(3-cyanobicyclo[1.1.1]pentan-1-yl)-2-((2,4,6-trichlorophenyl)sulfonamido)-4-(trifluoromethyl)benzamide] | 6.58
N#CC12CC(NC(=O)c3ccc(C(F)(F)F)cc3NS(=O)(=O)c3ccccc3)(C1)C2 [Example 41, N-(3-cyanobicyclo[1.1.1]pentan-1-yl)-2-(phenylsulfonamido)-4-(trifluoromethyl)benzamide] | 2.16
CN(C)S(=O)(=O)c1ccc(S(=O)(=O)Nc2cc(C(F)(F)F)ccc2C(=O)NC23CC(C#N)(C2)C3)cc1 [Example 42, N-(3-cyanobicyclo[1.1.1]pentan-1-yl)-2-((4-(N,N-dimethylsulfamoyl)phenyl)sulfonamido)-4-(trifluoromethyl)benzamide] | 27.5
O=C(NC12CC(c3ccccc3)(C1)C2)c1ccc(C(F)(F)F)cc1NS(=O)(=O)c1ccc(-n2cnnn2)cc1 [Example 43, 2-((4-(1H-tetrazol-1-yl)phenyl)sulfonamido)-N-(3-phenylbicyclo[1.1.1]pentan-1-yl)-4-(trifluoromethyl)benzamide] | 2.99
O=C(NC12CC(c3ccccc3)(C1)C2)c1ccc(C(F)(F)F)cc1NS(=O)(=O)c1ccc(S(=O)(=O)C(F)F)cc1 [Example 44, 2-((4-((difluoromethyl)sulfonyl)phenyl)sulfonamido)-N-(3-phenylbicyclo[1.1.1]pentan-1-yl)-4-(trifluoromethyl)benzamide] | 1.16
CS(=O)(=O)c1ccc(S(=O)(=O)Nc2cc(C(F)(F)F)ccc2C(=O)NC23CCC(CC2)C3)cc1 [Example 45, N-(bicyclo[2.2.1]heptan-1-yl)-2-((4-(methylsulfonyl)phenyl)sulfonamido)-4-(trifluoromethyl)benzamide] | 5.45
CS(=O)(=O)c1ccc(S(=O)(=O)Nc2cc(Br)ccc2C(=O)NC23CC(C(F)(F)F)(C2)C3)cc1 [Example 46, 4-bromo-2-((4-(methylsulfonyl)phenyl)sulfonamido)-N-(3-(trifluoromethyl)bicyclo[1.1.1]pentan-1-yl)benzamide] | 3.48
CS(=O)(=O)Nc1cc(Br)ccc1C(=O)NC12CC(C1)C2 [Example 47, N-(bicyclo[1.1.1]pentan-1-yl)-4-bromo-2-(methylsulfonamido)benzamide] | 17.3
CS(=O)(=O)Nc1cc(Br)ccc1C(=O)NC12CC(C(F)(F)F)(C1)C2 [Example 48, 4-bromo-2-(methylsulfonamido)-N-(3-(trifluoromethyl)bicyclo[1.1.1]pentan-1-yl)benzamide] | 5.81
CS(=O)(=O)Nc1cc(Br)ccc1C(=O)NC12CC(c3ccccc3)(C1)C2 [Example 49, 4-bromo-2-(methylsulfonamido)-N-(3-phenylbicyclo[1.1.1]pentan-1-yl)benzamide] | 4.99
O=C(NC12CC(C1)C2)c1ccc(F)cc1NS(=O)(=O)C1CC1 [Example 50, N-(bicyclo[1.1.1]pentan-1-yl)-2-(cyclopropanesulfonamido)-4-fluorobenzamide] | ≥ 100
NC(=O)c1ccc(S(=O)(=O)Nc2cc(C(F)(F)F)ccc2C(=O)NC23CC(c4ccccc4)(C2)C3)cc1 [Example 51, 2-((4-carbamoylphenyl)sulfonamido)-N-(3-phenylbicyclo[1.1.1]pentan-1-yl)-4-(trifluoromethyl)benzamide] | 28.8
NC(=O)c1ccc(S(=O)(=O)Nc2cc(C(F)(F)F)ccc2C(=O)NC23CC(C2)C3)cc1 [Example 52, N-(bicyclo[1.1.1]pentan-1-yl)-2-((4-carbamoylphenyl)sulfonamido)-4-(trifluoromethyl)benzamide] | 200
NC(=O)c1ccc(S(=O)(=O)Nc2cc(C(F)(F)F)ccc2C(=O)NC23CC(C(F)(F)F)(C2)C3)cc1 [Example 53, 2-((4-carbamoylphenyl)sulfonamido)-4-(trifluoromethyl)-N-(3-(trifluoromethyl)bicyclo[1.1.1]pentan-1-yl)benzamide] | 46.1
CC(C)S(=O)(=O)Nc1cc(C(F)(F)F)ccc1C(=O)NC12CC(c3ccccc3)(C1)C2 [Example 54, 2-((1-methylethyl)sulfonamido)-N-(3-phenylbicyclo[1.1.1]pentan-1-yl)-4-(trifluoromethyl)benzamide] | 1.22
CC(C)S(=O)(=O)Nc1cc(C(F)(F)F)ccc1C(=O)NC12CC(C1)C2 [Example 55, N-(bicyclo[1.1.1]pentan-1-yl)-2-((1-methylethyl)sulfonamido)-4-(trifluoromethyl)benzamide] | 6.32
CC(C)S(=O)(=O)Nc1cc(C(F)(F)F)ccc1C(=O)NC12CC(C(F)(F)F)(C1)C2 [Example 56, 2-((1-methylethyl)sulfonamido)-4-(trifluoromethyl)-N-(3-(trifluoromethyl)bicyclo[1.1.1]pentan-1-yl)benzamide] | 0.825
CC(C)S(=O)(=O)Nc1cc(C(F)(F)F)ccc1C(=O)NC12CCC(C#N)(CC1)CC2 [Example 57, N-(4-cyanobicyclo[2.2.2]octan-1-yl)-2-((1-methylethyl)sulfonamido)-4-(trifluoromethyl)benzamide] | 8.09
NS(=O)(=O)c1ccc(S(=O)(=O)Nc2cc(C(F)(F)F)ccc2C(=O)NC23CC(C(F)(F)F)(C2)C3)cc1 [Example 58, 2-((4-sulfamoylphenyl)sulfonamido)-4-(trifluoromethyl)-N-(3-(trifluoromethyl)bicyclo[1.1.1]pentan-1-yl)benzamide] | 63.4
